{"source": "ChEMBL document CHEMBL1124053", "about": "“Synthesis, pharmacology, and molecular modeling studies of semirigid, nicotinic agonists” (1988)", "assay": "Potency (reciprocal of the equipotent molar ratio compared to carbamylcholine), estimated by contracture of the frog rectus abdominis muscle", "format": "functional"}
{"smiles": "CC(=O)C1=CC[N+](C)(C)CC1", "values": [{"measurement": "Potency", "value": 50}]}
{"smiles": "C[C@H](O)C1CC[N+](C)(C)CC1", "values": [{"measurement": "Potency", "value": 0.25}]}
{"smiles": "C[N+]1(C)CC=C(CO)CC1", "values": [{"measurement": "Potency", "value": 0.35}]}
{"smiles": "C[N+]1(C)CCC(=NO)CC1", "values": [{"measurement": "Potency", "value": 0.0055}]}
{"smiles": "C[N+]1(C)CCN(C(=O)C(F)(F)F)CC1", "values": [{"measurement": "Potency", "value": 4.6}]}
{"smiles": "CC(=O)N1CC[N+](C)(C)CC1", "values": [{"measurement": "Potency", "value": 2.6}]}
{"smiles": "C[C@H](O)C1=CC[N+](C)(C)CC1", "values": [{"measurement": "Potency", "value": 2}]}
{"smiles": "CC(=O)C1CC[N+](C)(C)CC1", "values": [{"measurement": "Potency", "value": 9.1}]}
